Assay [1] in a line: decrease of PhoP-driven GFP reporter signal, S. Typhimurium, dose response, PhoP regulon inhibitor project, purified and synthesized compounds, set 2 (AID 2831). Format: functional.
A short description of assay [2]: growth suppression of PTEN-null colon cells, dose response, cell-based, HCT116 PTEN knockout (AID 1047).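 Note: HCT116 colon tumor cells with PTEN knocked out; cells exposed to compound for 60 hours before readout; potency for loss of cell viability measured by luminescence.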 The class given is functional.
Another assay addresses T1, Streptokinase A (Streptococcus pyogenes serotype M1, UniProt P10520).
T1 sequence (P10520 whole entry): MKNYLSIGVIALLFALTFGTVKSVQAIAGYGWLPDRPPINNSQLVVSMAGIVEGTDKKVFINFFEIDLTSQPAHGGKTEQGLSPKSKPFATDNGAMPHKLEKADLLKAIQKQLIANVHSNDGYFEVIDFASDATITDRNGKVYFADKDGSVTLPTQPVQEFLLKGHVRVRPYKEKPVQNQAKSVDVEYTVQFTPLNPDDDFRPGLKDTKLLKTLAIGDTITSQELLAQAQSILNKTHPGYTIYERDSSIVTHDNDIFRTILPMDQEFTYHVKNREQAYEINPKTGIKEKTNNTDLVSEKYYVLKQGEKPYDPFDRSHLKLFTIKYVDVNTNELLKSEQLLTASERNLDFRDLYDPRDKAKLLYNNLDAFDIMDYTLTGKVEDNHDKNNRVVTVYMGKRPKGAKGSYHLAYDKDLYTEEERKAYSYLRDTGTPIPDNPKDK
Description: S. pyogenes streptokinase expression inhibitors, potency, dose response, plasminogen activation absorbance, OD405 (AID 1914).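 Note: secreted streptokinase activity via plasminogen activation per viability signal from cell pellet.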 The class given is functional, Streptococcus pyogenes M1 GAS.

A further assay relates to Streptococcus. In words: Group A Streptococcus viability loss, dose response, counter-screen for streptokinase expression inhibitor project, luminescence, BacTiterGlo (AID 1915).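 Note: potency for reduction of bacterial viability or growth.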 Format: functional, organism-based. In general terms: Counterscreens check selectivity or assay interference.
Assay [3] in a line: Luminescence Cell-Based Dose Retest to Confirm Inhibitors of Cancer Stem Cells. [Related pubchem assays (depositor defined):AID2717, AID2721]. The class given is functional. Conditions: Homo sapiens.
Assay [4] deals with Streptococcus sp. 'group A'. Description: growth inhibition of control SK(-) GAS strain, dose response, counter-screen for streptokinase expression inhibitor project, luminescence, kanamycin, BacTiterGlo, confirmation (AID 1900). The class given is functional, organism-based.
A short description of assay [5]: growth suppression of beta-catenin-knockout colon cells, dose response, cell-based, HCT116, human colon tumor (AID 1045).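 Note: HCT116 colon tumor cells with beta catenin knocked out; cells exposed to compound for 60 hours.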 The class given is functional.
The next assay deals with T2, Hexokinase HKDC1 (Homo sapiens, UniProt Q2TB90).
T2 sequence (Q2TB90 whole entry): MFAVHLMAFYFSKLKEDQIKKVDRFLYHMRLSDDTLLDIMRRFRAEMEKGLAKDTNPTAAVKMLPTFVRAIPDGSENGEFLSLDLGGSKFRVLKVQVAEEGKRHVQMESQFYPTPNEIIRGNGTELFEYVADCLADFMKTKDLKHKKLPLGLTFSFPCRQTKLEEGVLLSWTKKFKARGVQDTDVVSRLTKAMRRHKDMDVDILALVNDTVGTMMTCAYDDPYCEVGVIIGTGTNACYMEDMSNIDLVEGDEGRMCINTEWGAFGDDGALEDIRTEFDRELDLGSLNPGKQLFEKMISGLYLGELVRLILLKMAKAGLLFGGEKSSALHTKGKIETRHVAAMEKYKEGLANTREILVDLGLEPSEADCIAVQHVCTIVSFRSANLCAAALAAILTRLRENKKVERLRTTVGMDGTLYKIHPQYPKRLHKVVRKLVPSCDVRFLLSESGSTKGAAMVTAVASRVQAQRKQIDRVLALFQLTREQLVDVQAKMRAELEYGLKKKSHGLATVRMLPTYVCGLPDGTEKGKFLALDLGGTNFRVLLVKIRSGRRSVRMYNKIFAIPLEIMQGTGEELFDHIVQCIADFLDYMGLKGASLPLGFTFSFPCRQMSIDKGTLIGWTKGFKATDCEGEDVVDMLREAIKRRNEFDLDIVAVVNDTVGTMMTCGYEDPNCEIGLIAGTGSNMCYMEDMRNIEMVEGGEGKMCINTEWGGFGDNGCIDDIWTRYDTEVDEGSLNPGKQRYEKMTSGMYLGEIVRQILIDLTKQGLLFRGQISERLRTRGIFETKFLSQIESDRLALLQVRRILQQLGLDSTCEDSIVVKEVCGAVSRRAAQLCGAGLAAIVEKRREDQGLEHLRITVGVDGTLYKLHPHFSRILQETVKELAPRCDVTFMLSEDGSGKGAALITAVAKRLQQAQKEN
Description: HKDC1 hexokinase activators, dose response, biochemical, W721R variant (AID 504730). Format: functional.

In the next assay the target is T3, Hexokinase-1 (Homo sapiens, UniProt P19367).
T3 sequence (P19367 whole entry): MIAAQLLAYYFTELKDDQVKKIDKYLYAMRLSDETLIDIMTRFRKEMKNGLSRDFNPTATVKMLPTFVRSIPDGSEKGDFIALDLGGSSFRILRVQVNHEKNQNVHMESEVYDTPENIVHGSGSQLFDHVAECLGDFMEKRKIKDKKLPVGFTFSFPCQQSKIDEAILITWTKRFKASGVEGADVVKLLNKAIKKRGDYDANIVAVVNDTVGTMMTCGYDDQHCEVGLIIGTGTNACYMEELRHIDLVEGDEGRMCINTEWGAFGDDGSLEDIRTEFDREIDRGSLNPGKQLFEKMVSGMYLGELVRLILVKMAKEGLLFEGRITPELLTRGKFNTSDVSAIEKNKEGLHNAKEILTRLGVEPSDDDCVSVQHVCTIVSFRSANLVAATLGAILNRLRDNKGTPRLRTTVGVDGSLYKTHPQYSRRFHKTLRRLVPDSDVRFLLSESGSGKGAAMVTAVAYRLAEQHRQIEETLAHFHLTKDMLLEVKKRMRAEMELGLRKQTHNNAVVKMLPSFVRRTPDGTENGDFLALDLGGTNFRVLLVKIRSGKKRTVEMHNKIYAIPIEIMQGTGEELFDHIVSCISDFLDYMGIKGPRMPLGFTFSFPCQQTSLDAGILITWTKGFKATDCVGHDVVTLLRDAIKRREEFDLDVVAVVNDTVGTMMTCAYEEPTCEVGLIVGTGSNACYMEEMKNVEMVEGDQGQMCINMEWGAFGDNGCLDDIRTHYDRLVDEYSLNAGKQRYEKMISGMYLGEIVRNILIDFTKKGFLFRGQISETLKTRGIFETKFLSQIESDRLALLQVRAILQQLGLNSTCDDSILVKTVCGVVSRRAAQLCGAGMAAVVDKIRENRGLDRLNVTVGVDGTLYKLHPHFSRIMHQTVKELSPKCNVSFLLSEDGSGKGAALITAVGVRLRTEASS
Description: hexokinase 1 activators, dose response, selectivity assay for HKDC1 activator project, biochemical (AID 504762). The class given is functional.

Assay [6] has as its target T4, Tyrosine-protein phosphatase non-receptor type 22 (Homo sapiens, UniProt Q9Y2R2).
T4 sequence (Q9Y2R2 whole entry): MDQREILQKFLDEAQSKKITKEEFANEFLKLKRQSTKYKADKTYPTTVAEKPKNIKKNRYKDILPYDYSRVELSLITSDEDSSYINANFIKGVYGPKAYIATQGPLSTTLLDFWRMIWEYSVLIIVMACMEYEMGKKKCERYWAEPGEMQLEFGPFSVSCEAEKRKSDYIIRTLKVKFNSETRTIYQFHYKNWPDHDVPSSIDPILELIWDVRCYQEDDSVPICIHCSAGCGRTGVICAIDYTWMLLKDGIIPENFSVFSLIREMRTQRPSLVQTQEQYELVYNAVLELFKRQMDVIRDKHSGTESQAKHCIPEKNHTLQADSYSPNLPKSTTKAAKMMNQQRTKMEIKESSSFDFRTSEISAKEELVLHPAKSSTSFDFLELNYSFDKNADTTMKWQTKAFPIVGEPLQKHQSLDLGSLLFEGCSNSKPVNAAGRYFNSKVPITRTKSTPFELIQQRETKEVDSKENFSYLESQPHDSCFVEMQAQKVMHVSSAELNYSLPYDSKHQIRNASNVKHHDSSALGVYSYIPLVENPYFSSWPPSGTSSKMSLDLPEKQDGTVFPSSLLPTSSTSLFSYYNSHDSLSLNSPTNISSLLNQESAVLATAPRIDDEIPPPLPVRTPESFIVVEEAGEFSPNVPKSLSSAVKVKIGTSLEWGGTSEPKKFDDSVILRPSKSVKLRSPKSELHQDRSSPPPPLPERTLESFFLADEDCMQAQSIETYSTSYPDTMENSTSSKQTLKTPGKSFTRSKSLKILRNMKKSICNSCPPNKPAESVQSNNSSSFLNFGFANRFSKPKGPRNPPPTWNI
In words: SAR LYP1 Fluorescent Assay using OMFP substrate for In Vitro dose response studies - Set 2. [Related pubchem assays (depositor defined):AID1779, AID1784, AID2140, AID449726, AID488869]. The class given is functional.

For assay [7], the target named is T4, Tyrosine-protein phosphatase non-receptor type 22. Description: SAR LYP1 Fluorescent Assay using pCAP substrate for In Vitro dose response studies - Set 2. [Related pubchem assays (depositor defined):AID1779, AID1784, AID2135, AID449727]. The class given is functional.
Assay [8] addresses Tyrosine-protein phosphatase non-receptor type 12 (Homo sapiens, UniProt Q05209). Description: SAR Selectivity Analysis of small molecule inhibitors of PEST using pCAP in a fluorescence assay. [Related pubchem assays (depositor defined):AID1779, AID1784, AID2135]. The class given is functional.
For assay [9], the target named is T4, Tyrosine-protein phosphatase non-receptor type 22. In words: SAR LYP1 Fluorescent Assay using OMFP substrate for In Vitro dose response studies - Set 3. [Related pubchem assays (depositor defined):AID1779, AID1784, AID2140, AID2686]. Format: functional.
In assay [10] the target is T5, Tyrosine-protein phosphatase non-receptor type 7 (Homo sapiens, UniProt P35236).
T5 sequence (P35236 whole entry): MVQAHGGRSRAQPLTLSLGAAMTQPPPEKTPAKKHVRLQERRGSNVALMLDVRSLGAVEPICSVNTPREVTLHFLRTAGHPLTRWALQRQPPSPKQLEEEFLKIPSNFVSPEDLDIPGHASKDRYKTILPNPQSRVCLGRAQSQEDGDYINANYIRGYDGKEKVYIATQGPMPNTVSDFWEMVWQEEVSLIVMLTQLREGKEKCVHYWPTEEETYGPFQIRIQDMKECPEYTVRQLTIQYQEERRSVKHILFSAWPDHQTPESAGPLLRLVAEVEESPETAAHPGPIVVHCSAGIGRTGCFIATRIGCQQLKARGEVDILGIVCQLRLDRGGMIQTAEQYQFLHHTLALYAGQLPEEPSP
In words: HePTP (PTPN7) phosphatase inhibitor potency, SAR follow-up, biochemical, set 2 (AID 449736). The class given is functional.

Assay [11] addresses G-protein coupled receptor 55 (Homo sapiens, UniProt Q9Y2T6). Description: SAR Analysis of Selective Antagonists of GPR55 using an Image-Based Assay - Set 4. [Related pubchem assays (depositor defined):AID2013, AID2026]. The class given is functional.
In assay [12] the target is T6, Cannabinoid receptor 2 (Homo sapiens, UniProt P34972). Description: SAR analysis of antagonists of the Cannabinoid Receptor 2 using an Image-Based Assay - Set 3. [Related pubchem assays (depositor defined):AID2013, AID2026]. Format: functional.
T6 sequence (P34972 whole entry): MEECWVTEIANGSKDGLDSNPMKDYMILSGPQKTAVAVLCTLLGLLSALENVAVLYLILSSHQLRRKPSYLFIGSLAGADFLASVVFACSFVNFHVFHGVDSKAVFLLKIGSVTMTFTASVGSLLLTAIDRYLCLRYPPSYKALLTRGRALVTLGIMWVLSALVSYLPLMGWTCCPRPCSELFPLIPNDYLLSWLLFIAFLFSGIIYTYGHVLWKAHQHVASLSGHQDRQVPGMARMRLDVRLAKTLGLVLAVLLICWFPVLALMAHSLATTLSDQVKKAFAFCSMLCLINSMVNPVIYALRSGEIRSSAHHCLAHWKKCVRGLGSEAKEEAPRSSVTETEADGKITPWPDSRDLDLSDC
Assay [13] has as its target T7, Cannabinoid receptor 1 (Homo sapiens, UniProt P21554). In words: SAR analysis of agonists of the Cannabinoid Receptor 1 using an Image-Based Assay - Set 4. [Related pubchem assays (depositor defined):AID2013, AID2026]. Format: functional.
Assay [14] has as its target T7, Cannabinoid receptor 1. Description: SAR analysis of antagonists of the Cannabinoid Receptor 1 using an Image-Based Assay - Set 4. [Related pubchem assays (depositor defined):AID2013, AID2026]. Format: functional.
The target in assay [15] is T8, G-protein coupled receptor 35 (Homo sapiens, UniProt Q9HC97). In words: SAR analysis of Antagonists of the GPR35 Receptor using an Image-Based Assay - Set 6. [Related pubchem assays (depositor defined):AID2013, AID2026]. The class given is functional.
T8 sequence (Q9HC97 whole entry): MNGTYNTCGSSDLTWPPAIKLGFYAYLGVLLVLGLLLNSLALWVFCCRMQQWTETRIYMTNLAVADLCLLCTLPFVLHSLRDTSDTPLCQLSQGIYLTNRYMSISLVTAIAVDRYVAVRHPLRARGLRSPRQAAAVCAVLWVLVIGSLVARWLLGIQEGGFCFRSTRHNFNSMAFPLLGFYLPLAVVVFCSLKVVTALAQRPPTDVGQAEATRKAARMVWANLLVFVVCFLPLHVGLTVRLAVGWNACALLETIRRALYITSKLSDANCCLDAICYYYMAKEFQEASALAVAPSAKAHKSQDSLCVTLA
The target of assay [16] is T6, Cannabinoid receptor 2. Description: SAR analysis of agonists of the Cannabinoid Receptor 2 using an Image-Based Assay - Set 3. [Related pubchem assays (depositor defined):AID2013, AID2026]. The class given is functional.
The target in assay [17] is T8, G-protein coupled receptor 35. In words: SAR analysis of Agonists of the GPR35 Receptor using an Image-Based Assay - Set 4. [Related pubchem assays (depositor defined):AID2013, AID2026]. The class given is functional.
Assay [18] deals with Kappa-type opioid receptor (Homo sapiens, UniProt P41145). In words: SAR analysis of small molecule agonists of the kappa opioid receptor via a luminescent beta-arrestin assay - Set 3. [Related pubchem assays (depositor defined):AID1777, AID1785, AID1786, AID1966, AID2133, AID2136, AID2284, AID2500]. The class given is functional.
Chain of Kappa-type opioid receptor (P41145 whole entry): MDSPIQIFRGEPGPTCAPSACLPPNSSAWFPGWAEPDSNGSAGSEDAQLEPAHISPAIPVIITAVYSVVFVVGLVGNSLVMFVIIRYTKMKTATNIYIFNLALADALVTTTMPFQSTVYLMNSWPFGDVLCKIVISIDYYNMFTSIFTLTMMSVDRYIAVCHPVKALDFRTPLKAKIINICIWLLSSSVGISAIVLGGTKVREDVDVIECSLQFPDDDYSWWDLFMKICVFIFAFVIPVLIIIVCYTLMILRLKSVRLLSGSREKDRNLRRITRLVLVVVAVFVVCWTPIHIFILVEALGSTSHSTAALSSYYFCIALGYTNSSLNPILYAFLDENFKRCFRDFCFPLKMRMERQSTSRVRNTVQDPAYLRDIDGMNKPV

The source made the active and inactive calls.

By IC50 is commonly meant the concentration at which inhibition is half-maximal. What is called EC50 is the concentration that produces a half-maximal response. Broadly, the AC50 is the concentration giving half of the maximal activity seen.
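Throughout, for AC50: cells exposed to compound for roughly 70 hours or longer before luminescence read.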

T7 sequence (P21554 whole entry): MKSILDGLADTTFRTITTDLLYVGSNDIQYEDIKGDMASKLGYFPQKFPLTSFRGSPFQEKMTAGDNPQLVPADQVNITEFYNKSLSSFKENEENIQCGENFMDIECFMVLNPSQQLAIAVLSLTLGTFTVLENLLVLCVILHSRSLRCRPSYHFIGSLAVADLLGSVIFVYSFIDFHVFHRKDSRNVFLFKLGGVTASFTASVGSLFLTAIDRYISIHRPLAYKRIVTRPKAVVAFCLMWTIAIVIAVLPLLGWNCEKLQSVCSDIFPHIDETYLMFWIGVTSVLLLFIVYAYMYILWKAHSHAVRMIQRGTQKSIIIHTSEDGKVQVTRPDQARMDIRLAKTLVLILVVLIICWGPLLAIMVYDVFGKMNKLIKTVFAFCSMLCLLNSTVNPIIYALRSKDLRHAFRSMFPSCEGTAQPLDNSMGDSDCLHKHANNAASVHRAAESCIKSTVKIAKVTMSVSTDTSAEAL
Chain of G-protein coupled receptor 55 (Q9Y2T6 whole entry): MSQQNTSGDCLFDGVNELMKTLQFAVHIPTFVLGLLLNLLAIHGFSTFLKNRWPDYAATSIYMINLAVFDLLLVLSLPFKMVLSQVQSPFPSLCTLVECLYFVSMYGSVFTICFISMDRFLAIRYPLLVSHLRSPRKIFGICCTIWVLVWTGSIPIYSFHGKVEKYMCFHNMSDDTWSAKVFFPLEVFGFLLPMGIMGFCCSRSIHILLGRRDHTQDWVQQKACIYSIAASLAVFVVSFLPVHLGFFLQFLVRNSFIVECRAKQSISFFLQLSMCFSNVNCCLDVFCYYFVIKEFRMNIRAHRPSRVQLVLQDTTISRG
Chain of Tyrosine-protein phosphatase non-receptor type 12 (Q05209 whole entry): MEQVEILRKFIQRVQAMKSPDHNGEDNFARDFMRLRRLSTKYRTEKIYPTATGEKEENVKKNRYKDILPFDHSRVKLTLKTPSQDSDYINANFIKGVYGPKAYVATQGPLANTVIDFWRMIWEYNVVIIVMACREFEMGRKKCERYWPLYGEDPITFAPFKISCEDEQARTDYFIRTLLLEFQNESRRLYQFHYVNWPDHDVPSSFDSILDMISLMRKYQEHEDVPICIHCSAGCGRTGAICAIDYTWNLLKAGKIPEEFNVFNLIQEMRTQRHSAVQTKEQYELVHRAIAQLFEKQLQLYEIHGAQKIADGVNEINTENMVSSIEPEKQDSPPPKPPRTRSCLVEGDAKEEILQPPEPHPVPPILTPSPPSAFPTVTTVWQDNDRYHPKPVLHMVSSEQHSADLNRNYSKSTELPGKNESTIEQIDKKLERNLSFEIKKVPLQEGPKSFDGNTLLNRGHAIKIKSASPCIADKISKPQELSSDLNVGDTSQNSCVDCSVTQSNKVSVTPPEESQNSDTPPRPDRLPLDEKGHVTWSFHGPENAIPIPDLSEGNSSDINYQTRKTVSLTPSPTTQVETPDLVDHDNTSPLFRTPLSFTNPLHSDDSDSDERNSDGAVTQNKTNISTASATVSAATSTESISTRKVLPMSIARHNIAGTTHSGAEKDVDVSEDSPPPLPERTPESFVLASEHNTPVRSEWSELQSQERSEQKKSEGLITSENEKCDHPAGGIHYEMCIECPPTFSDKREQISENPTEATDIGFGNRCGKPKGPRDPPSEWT

Consider `CN1CCN(C2=Cc3cc(Cl)ccc3Sc3cc(F)ccc32)CC1`, for which, in assay [1], the IC50 is > 125 µM (active). Besides, the EC50 was 9.39 µM (active) in assay [2]; > 150 µM (not active) at Streptokinase A; 12 µM (active) in the assay on Streptococcus; 7.44 µM (active) in assay [4]; 10.5 µM (active) in assay [5]. Moreover, in [3], the AC50 is 6.63 µM (active).

With `CCOC(=O)c1c(C)[nH]c(C2=NN=C(Nc3ccccc3OC)SC2)c1C`, the EC50 was 15 µM (active) at Hexokinase HKDC1 and 15.3 µM (active) at Hexokinase-1.

As for `COc1cc(/C=C(\C#N)C(=O)Nc2cccc(C(=O)O)c2)ccc1OCc1ccc(C)cc1`, the half-maximal inhibitory concentration (IC50) in assay [6] was 14.7 µM (active); in [7], 22.1 µM (active); in assay [8], 2.69 µM (active); in [9], 5.39 µM (active); in [10], 2.02 µM (active).

For the compound `N=c1c(C(=O)NCc2ccco2)cc2c(=O)n3ccccc3nc2n1C1CCCC1`, the IC50 is 28.3 µM (inactive) in assay [11], > 32 µM (inactive) on Cannabinoid receptor 2 [12], 31.5 µM (inactive) on Cannabinoid receptor 1 [14] and > 32 µM (inactive) in assay [15]. Also, the EC50 is > 32 µM (inactive) on Cannabinoid receptor 1 [13], 2.13 µM (active) at Cannabinoid receptor 2 [16] and > 32 µM (inactive) in assay [17].

As to `FC(F)(F)c1cc(CSc2nnc(-c3ccccn3)n2Cc2ccccc2)ccc1Cl`, the EC50 in assay [18] was 2.22 µM (active).

The values are drawn from ChEMBL document CHEMBL1201862, “PubChem BioAssay data set” (2004).
